Series [1] concerns HeLa cells. The experiment in a line: Assay 1 cell proliferation measurement (CTG, 72 h), HeLa. The class given is cell-based, human. Particulars: Homo sapiens, HeLa; Assay 1, 72 h, Cell Titer Glo; read-out: HeLa IC50 [nM] (Cervical cancer). The method in brief:
(§1)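 Cells were plated, grown overnight at 37 °C, then treated 72 h with a 10-step 2.5-fold dilution series from 100 nM maximum final (0.3% DMSO vehicle). Viability was read by CellTiter-Glo luminescence. IC50 from a 4-parameter fit, normalised to a 0 h plate (maximum inhibition) and DMSO control (minimum inhibition).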
Background: In ATP-based viability assays light output follows the ATP content of the culture.

Series [2] has as its system SK-MEL-3 cells. The experiment in a line: Assay 1 cell proliferation measurement (CTG, 72 h), SK-MEL-3. Type of series: cell-based, human. Particulars: Homo sapiens, SK-MEL3; Assay 1, 72 h, Cell Titer Glo; read-out: SK-MEL-3 IC50 [nM] (melanoma). Summed up: as §1
Series [3] relates to HEL 92.1.7 cells. Put plainly: Assay 1 cell proliferation measurement, HEL 92.1.7. Type of series: cell-based. Particulars: Homo sapiens, Erythroleukemia, read-out: Anti-proliferation IC50 [nM] HEL 92.1.7.
Series [4] deals with H4 cells. Put plainly: Assay 1 cell proliferation measurement, H4. The class given is cell-based. Particulars: Homo sapiens; Astrocytoma; read-out: Anti-proliferation IC50 [nM] H4.
For series [5], the system named is NCI-H1734 cells. Put plainly: Assay 1 cell proliferation measurement, NCI-H1734. The class given is cell-based. Particulars: Homo sapiens, Lung, read-out: Anti-proliferation IC50 [nM] NCI-H1734.
Series [6] concerns IGR-1 cells. The experiment in a line: Assay 1 cell proliferation measurement, IGR-1. Particulars: Homo sapiens, Melanoma, read-out: Anti-proliferation IC50 [nM] IGR-1. The class given is cell-based.
Series [7] relates to HMCB cells. The experiment in a line: Assay 1 cell proliferation measurement, HMCB. The class given is cell-based. Particulars: Homo sapiens, Melanoma, read-out: Anti-proliferation IC50 [nM] HMCB.
Series [8] has as its target human full length PDE3A (Homo sapiens (Human), UniProt Q14432). Put plainly: Assay 4 PDE3A enzyme inhibition (3H-cAMP SPA). Type of series: biochemical. As to conditions: Sf9 cell extract. The method in brief:
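Enzyme: Sf9 extract with overexpressed full-length PDE3A; substrate [8-3H]cAMP, 0.025 μCi/well; 60 min, room temperature, Tris/HCl pH 7.5 buffer with MgCl2, EDTA, BSA.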

The target of series [9] is human full length PDE3B (Homo sapiens (Human), UniProt Q13370). The experiment in a line: Assay 5 PDE3B enzyme inhibition (3H-cAMP SPA). The class given is biochemical. Particulars: Sf9 cell extract. The method in brief:
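Hydrolysis of tritiated cAMP by Sf9-expressed full-length human PDE3B proceeded 60 min at room temperature in Tris buffer pH 7.5 containing Mg2+, EDTA and BSA, with enzyme dilution keeping substrate consumption below 70%. IC50 derived from percent activity versus log compound concentration.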

Series [10] can be described thus: Assay 6 in vitro metabolic stability in cryopreserved human hepatocytes (CL, Fmax). As to conditions: 1 μM test compound. Type of series: in vitro ADME. The method in brief:
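Test compound at 1 μM incubated with cryopreserved human hepatocytes (1.0×10^6 viable cells/ml, WME with 5% FCS) under shaking, with samples taken from 2 to 90 min, methanol-quenched and analysed by LC-MS/MS. Half-life gave intrinsic clearance, scaled with liver blood flow and hepatocellularity to CL and Fmax.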

Chain of human full length PDE3A (Q14432 whole entry): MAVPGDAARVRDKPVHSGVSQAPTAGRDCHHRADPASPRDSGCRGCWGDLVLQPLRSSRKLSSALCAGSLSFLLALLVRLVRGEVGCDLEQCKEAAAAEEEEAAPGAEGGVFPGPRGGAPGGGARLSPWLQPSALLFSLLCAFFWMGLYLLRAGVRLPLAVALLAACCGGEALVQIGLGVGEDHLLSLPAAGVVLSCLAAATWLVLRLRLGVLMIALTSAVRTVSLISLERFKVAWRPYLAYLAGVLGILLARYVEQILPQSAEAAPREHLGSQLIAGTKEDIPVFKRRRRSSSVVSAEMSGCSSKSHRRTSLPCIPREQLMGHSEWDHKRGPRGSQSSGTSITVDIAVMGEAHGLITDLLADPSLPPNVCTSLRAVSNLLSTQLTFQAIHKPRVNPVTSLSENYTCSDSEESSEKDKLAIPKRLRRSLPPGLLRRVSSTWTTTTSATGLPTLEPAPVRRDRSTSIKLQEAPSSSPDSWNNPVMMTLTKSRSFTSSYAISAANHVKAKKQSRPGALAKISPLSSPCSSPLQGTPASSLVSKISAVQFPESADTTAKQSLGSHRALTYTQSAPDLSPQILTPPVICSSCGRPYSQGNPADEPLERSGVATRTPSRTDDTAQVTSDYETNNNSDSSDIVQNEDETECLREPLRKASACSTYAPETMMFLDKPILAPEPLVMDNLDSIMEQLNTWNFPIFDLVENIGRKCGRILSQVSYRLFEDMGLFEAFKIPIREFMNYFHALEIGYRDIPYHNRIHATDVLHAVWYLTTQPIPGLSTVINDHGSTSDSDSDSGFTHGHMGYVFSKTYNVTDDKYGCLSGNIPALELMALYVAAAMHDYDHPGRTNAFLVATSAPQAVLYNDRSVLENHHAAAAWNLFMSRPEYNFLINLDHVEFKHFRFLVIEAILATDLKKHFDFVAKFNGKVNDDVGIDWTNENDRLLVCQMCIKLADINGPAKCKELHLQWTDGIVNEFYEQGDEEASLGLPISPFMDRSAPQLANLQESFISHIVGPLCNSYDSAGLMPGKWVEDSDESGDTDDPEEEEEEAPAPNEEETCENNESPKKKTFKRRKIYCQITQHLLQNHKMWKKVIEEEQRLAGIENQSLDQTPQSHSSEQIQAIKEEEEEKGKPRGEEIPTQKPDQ
Chain of human full length PDE3B (Q13370 whole entry): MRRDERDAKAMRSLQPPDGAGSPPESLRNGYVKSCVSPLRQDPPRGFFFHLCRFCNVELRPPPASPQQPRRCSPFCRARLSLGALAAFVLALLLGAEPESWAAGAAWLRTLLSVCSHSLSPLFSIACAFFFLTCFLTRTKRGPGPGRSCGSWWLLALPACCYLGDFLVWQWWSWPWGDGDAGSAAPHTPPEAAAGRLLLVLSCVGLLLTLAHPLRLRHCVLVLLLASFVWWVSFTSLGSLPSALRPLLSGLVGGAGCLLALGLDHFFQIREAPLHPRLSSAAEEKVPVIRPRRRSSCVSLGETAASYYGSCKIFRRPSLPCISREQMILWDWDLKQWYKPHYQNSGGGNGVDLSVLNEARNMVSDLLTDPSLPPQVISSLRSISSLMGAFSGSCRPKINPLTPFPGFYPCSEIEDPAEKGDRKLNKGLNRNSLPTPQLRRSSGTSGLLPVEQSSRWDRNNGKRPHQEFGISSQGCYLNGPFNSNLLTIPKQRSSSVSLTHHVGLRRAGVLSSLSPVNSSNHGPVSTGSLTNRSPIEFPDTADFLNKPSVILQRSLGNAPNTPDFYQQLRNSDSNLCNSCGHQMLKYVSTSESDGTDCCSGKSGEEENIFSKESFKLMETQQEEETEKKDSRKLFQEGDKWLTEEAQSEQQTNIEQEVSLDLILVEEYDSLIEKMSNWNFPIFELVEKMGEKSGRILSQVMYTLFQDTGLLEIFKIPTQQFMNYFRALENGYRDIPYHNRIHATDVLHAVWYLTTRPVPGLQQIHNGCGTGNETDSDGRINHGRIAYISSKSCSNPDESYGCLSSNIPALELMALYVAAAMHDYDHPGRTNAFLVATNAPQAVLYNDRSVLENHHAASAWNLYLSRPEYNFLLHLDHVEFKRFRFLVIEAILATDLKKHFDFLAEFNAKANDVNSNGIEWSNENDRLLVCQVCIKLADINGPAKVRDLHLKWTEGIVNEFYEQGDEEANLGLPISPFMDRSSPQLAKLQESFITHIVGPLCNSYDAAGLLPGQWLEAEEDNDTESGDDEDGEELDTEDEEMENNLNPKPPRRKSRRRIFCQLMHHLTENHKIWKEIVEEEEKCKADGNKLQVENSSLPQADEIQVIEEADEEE

As to `O=C1NN=C(c2ccc(N3CCC(F)(F)CC3)c(F)c2)CO1` [Example 1, 5-[4-(4,4-Difluoropiperidin-1-yl)-3-fluorophenyl]-3,6-dihydro-2H-1,3,4-oxadiazin-2-one], the IC50 in series [1] is 2 nM; in [2] it was 3 nM; in series [3], 20 nM; in series [4], 30 nM; in series [5], 19 nM; in series [6], 89 nM. Moreover, the IC50 in [7] was found to be 19 nM; in series [8], 0.275 µM; in series [9] it was 0.173 µM. For the same compound, the Clblood in [10] (hepatic in vivo blood clearance calculated (well-stirred) from half-life in cryopreserved human hepatocytes) is 4 mL/min/kg. The Fmax in series [10] (maximal oral bioavailability calculated from half-life in cryopreserved human hepatocytes) was 82%.
